Test results as given in patent US20250367282A1, “POLYCATION CARRIER PARTICLE” (ALLARTA LIFE SCIENCE INC., priority 2022, published 2025).

Columns and labels:
[1] = test system: RAW 264.7 macrophage cells; type: cell-based
Experimental: The cells were cultured for 3 days to reach about 80% confluence. The media was removed from the wells and the cells were washed once with about 250 μL of PBS. […] As controls, cells were exposed to a) 100 μL of serum-free DMEM, b) 100 µL of 10% v/v DMSO in serum-free DMEM, and c) 100 μL of 0.1 wt. % OVA-FITC in serum-free DMEM, were added to the cells. The cells were incubated for 4 h at 37° C., 5% CO2 in a humidified atmosphere. […] After 15 min, the paraformaldehyde solution was removed, the cells were washed twice with about 250 μL of PBS, and then 100 μL of PBS was added to the fixed cells. The cells were then imaged by brightfield and confocal fluorescence microscopy

[2] = test system: RAW 264.7 macrophage cells; assay: MTS cytotoxicity assay; type: cell-based; settings: 4 hours incubation; particles 0.1 wt. %, DMSO 10% v/v, serum-free DMEM; mean±standard deviation
Experimental: The cells were cultured for 3 days to reach around 80% confluence. The media was removed from the wells and the cells were washed once with about 250 μL of PBS. […] As controls, 100 μL of serum-free DMEM supplemented with 1% penicillin-streptomycin, 100 μL of 10% v/v DMSO in serum-free DMEM supplemented with 1% penicillin-streptomycin, 100 μL of 0.1 wt. % OVA-FITC in serum-free DMEM supplemented with 1% penicillin-streptomycin, and 100 μL of 0.1 wt. % HD particles suspensions in serum-free DMEM supplemented with 1% penicillin-streptomycin were added to the cells. The cells were incubated for 4 h at 37° C., 5% CO2 in a humidified atmosphere. 20 μL of MTS solution (Promega) was added to the wells and mixed. The plates were shaken at a horizontal distance of 1 mm for 10 seconds and read at 490 nm using a Biotek™ 800 TS absorbance reader. Statistical analysis was performed on the data using one-way analysis of variance (ANOVA) with a Bonferroni post hoc analysis. Significance level was set at p<0.05.

## C[S+](C)[O-] [DMSO, dimethyl sulfoxide]
[1]
  cell morphology by brightfield microscopy: rounded cell morphology and signs of apoptosis
[2]
  mean viability of RAW 264.7 cells: 64±12%
